Results published in patent US8853424B2 (Japan Science and Technology Agency, priority 2008, dated 2014).

How the values were obtained:
transglutaminase (TGase) = assay: Measurement of TG (TGase inhibitory activity, monodansyl cadaverine / N,N-dimethylcasein fluorescence, FDSS 3000); assay type: biochemical
How it was run: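 Compound (1 μL of 10 mM stock) added to 0.1 mL reaction: 100 mM HEPES-NaOH pH 7.5, 1 mM CaCl2, 20 μM monodansyl cadaverine, 0.05 mg/mL N,N-dimethylcasein, 5 μg/mL TGase. Rate of fluorescence change at 340 nm measured; DMSO control set to 100; TG50 is the concentration halving activity.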

[1] = test system: Truncated N-terminal huntington 150 Q-EGFP-Neuron 2a cells; assay: Measurement of x-Fold (polyglutamine aggregation inhibitory activity); assay type: cell-based
Experimental: In the present invention, the polyglutamine aggregation inhibitory activity (x-Fold) can be measured, for example, by the method described in the Example.
The number of the aggregated cells, and the total number of cells were counted by Array Scan V T1 (manufactured by Cellomics, Pittuburg, USA), and the ratio of the aggregated cells to the total number of cells was determined (x-Fold). […]

[2] = TGase activity with compound (10 mM, 1 μL in 0.1 ml enzyme reaction solution), DMSO control taken as 100
[3] = TGase inhibitory activity value, Table 1
[4] = polyglutamine aggregation inhibitory activity, Table 1
[5] = ratio of aggregated cells to total number of cells, compound 20 μM, 20 hr, almost 1 without compound, smaller = stronger inhibition

Row | Compound | TGase activity remaining (% of DMSO control = 100) (transglutaminase (TGase); [2]) | TGase activity remaining (% of DMSO control = 100) (transglutaminase (TGase); [3]) | x-Fold [1, 4] | x-Fold [1, 5] | further results
1 | CC(C)(N)COB(c1ccc(Cl)c(F)c1)c1ccc(Cl)c(F)c1 [Example 236, di(4-chloro-3-fluorophenyl) 2-amino-2-methyl-propyl-borinate] | 87 | 87 | 1.10 | 1.10 | 
2 | Fc1cc(B(OCCNc2ccccc2)c2ccc(Cl)c(F)c2)ccc1Cl [Example 237, di(4-chloro-3-fluorophenyl) 2-phenylaminoethyl borinate] | 88 | 88 | 1.15 | 1.15 | 
3 | CC(O)C(N)COB(c1ccc(Cl)c(F)c1)c1ccc(Cl)c(F)c1 (stereo not drawn) [Example 238, di(4-chloro-3-fluorophenyl) 2-amino-3-hydroxybutyl borinate] | 87 | 87 | 1.07 | 1.07 | 
4 | c1ccc(B(OCCN2CCN(CCOB(c3ccccc3)c3ccccc3)CC2)c2ccccc2)cc1 [Example 239, bis(diphenyl piperazino-O,O-ethoxyborane)] | 126 |  |  | 0.94 | 
5 | OB(c1cccc(Cl)c1)c1cccc(Cl)c1 [Example 241, di(3-chlorophenyl)borinic acid] | 67 |  |  | 1.10 | 
6 | Cc1ccc(Cl)cc1B(OCC1CCCCN1)c1cc(Cl)ccc1C (stereo not drawn) [Example 242, di(5-chloro-2-methylphenyl) 2-piperidinomethylborinate] | 98 |  |  | 1.17 | 
7 | NCCCC(N)C(=O)OB(c1ccccc1)c1ccccc1 (stereo not drawn) [Example 245, diphenyl(ornithine-O,N)borane] | 94 |  |  | 0.91 | TGase activity remaining (% of DMSO control = 100) (transglutaminase (TGase); TGase inhibitory activity value, Table 1, listed as 921): 94; x-Fold ([1]; polyglutamine aggregation inhibitory activity, Table 1, listed as 921): 0.91
8 | CCCCNCCOB(c1cc(Cl)ccc1C)c1cc(Cl)ccc1C [Example 246, di(5-chloro-2-methylphenyl) 2-butylaminoethylborinate] | 94 |  |  | 0.67 | 
9 | Cc1ccc(B(OCCC2CCCCN2)c2ccc(C)c(Cl)c2)cc1Cl (stereo not drawn) [Example 248] | 103 |  |  | 0.87 | 
10 | Cc1ccc(B(O)c2ccc(Oc3ccc(B(O)c4ccc(C)c(Cl)c4)cc3)cc2)cc1Cl [Example 251, bis(3-chloro-4-methylphenyl hydroxyborylphenyl)ether] | 121 |  |  | 0.83 | 
11 | NCC(=O)OB(c1ccccc1)c1ccccc1 [Example 254, diphenyl(glycinate-O,N)borane] | 101 | 101 | 0.95 | 0.95 | 
12 | O=C(O)CC1[NH2+][B-](c2ccccc2)(c2ccccc2)OC1=O (stereo not drawn) [Example 257] | 103 | 103 | 0.98 | 0.98 | 
13 | CC(C)CC(N)C(=O)OB(c1ccccc1)c1ccccc1 (stereo not drawn) [Example 261, diphenyl(leucinate-O,N)borane] | 109 | 109 | 0.89 | 0.89 | 
14 | CC(O)C(N)C(=O)OB(c1ccccc1)c1ccccc1 (stereo not drawn) [Example 265, diphenyl(threoninate-O,N)borane] | 112 | 112 | 0.94 | 0.94 | 
15 | NC(=O)CCC(N)C(=O)OB(c1ccccc1)c1ccccc1 (stereo not drawn) [Example 276, diphenyl(glutaminate-O,N)borane] | 105 |  |  | 0.8 | TGase activity remaining (% of DMSO control = 100) (transglutaminase (TGase); TGase inhibitory activity value, Table 1, listed as 854): 105; x-Fold ([1]; polyglutamine aggregation inhibitory activity, Table 1, listed as 854): 0.8
16 | O=C(OB(c1ccccc1)c1ccccc1)C1CNCCN1 (stereo not drawn) [Example 279, diphenyl(2-piperazinecarboxy)borane] | 103 | 103 | 0.98 | 0.98 | 

More lines, main results first:

Row | TGase activity remaining (% of DMSO control = 100) (transglutaminase (TGase); [2]) | TGase activity remaining (% of DMSO control = 100) (transglutaminase (TGase); [3]) | Compound | x-Fold [1, 4] | x-Fold [1, 5] | further results
17 | 98 |  | NCCC(N)C(=O)OB(c1ccccc1)c1ccccc1 (stereo not drawn) [Example 280, diphenyl(2,4-diaminolacetic acid)borane] |  | 0.88 | TGase activity remaining (% of DMSO control = 100) (transglutaminase (TGase); TGase inhibitory activity value, Table 1, listed as 897): 98; x-Fold ([1]; polyglutamine aggregation inhibitory activity, Table 1, listed as 897): 0.88
18 | 77 |  | Cc1ccc(B(OC(=O)c2ccccn2)c2ccc(C)c(Cl)c2)cc1Cl [Example 281, di(3-chloro-4-methylphenyl)-(picolinate-O,N)borane] |  | 0.94 | 
19 | 89 | 89 | O=C(OB(c1ccc(C(F)(F)F)cc1)c1ccc(C(F)(F)F)cc1)c1ccccn1 [Example 284, di(4-trifluoromethylphenyl) (picolinate-O,N)borane] | 1.03 | 1.03 | 
20 | 146 | 146 | Cc1ccc(B(OC(=O)C(N)CCCNC(N)=O)c2ccc(C)c(Cl)c2)cc1Cl (stereo not drawn) [Example 287, di(3-chloro-4-methylphenyl)(citrullinate-O,N)borane] | 1.00 | 1.00 | 
21 | 116 | 116 | Cc1ccc(B(OC(=O)C(N)CCN)c2ccc(C)c(Cl)c2)cc1Cl (stereo not drawn) [Example 293, di(3-chloro-4-methylphenyl)(2,4-diaminobutyrate-O,N)borane] | 0.91 | 0.91 | 
22 | 97 | 97 | OB(c1ccc(COCCOc2ccc(B(O)c3cccs3)cc2)cc1)c1cccs1 [Example 296, (4-(2-thiophenehydroxyboryl)phenoxyethyl)(4′-(2-thiophenehydroxyboryl)benzyl)ether] | 0.74 | 0.74 | 
23 | 89 |  | OB(c1ccccc1)c1ccccc1B(O)c1ccccc1 [Example 297, 1,2-di(phenylhydroxyboryl)benzene] |  | 0.69 | TGase activity remaining (% of DMSO control = 100) (transglutaminase (TGase); TGase inhibitory activity value, Table 1, listed as 806): 89; x-Fold ([1]; polyglutamine aggregation inhibitory activity, Table 1, listed as 806): 0.69
24 | 101 | 101 | NCCOB(c1ccccc1)c1ccccc1B(OCCN)c1ccccc1 [Example 298, 1,2-di(phenylaminoethoxyboryl)benzene] | 1.01 | 1.01 | 
25 | 47 | 47 | NC(=O)CCC(N)C(=O)OB(c1ccsc1)c1ccc2sc3ccc(B(OC(=O)C(N)CCC(N)=O)c4ccsc4)cc3c2c1 (stereo not drawn) [Example 304, 2,8-di(3-thiophenylglutamine-O,N boryl)dibenzothiophene] | 0.90 | 0.90 | 
26 | 94 |  | N#Cc1ccc(B(O)c2ccc(C#N)cc2)cc1 [Example 305, 4,4′-di(cyano-phenyl)borinic acid] |  | 0.98 | TGase activity remaining (% of DMSO control = 100) (transglutaminase (TGase); TGase inhibitory activity value, Table 1, listed as 6095): 94; x-Fold ([1]; polyglutamine aggregation inhibitory activity, Table 1, listed as 6095): 0.98
